Measurements: patent US20250313575A1, “MACROCYCLES AS LRRK2 INHIBITORS, PHARMACEUTICAL COMPOSITIONS, AND USES THEREOF” (Merck Sharp & Dohme LLC, priority 2022, published 2025)
Structures can show the parent of a compound that is named as a salt.

Target: GST-tagged truncated human mutant G2019S LRRK2 (Homo sapiens (Human), UniProt Q5S007, G2019S)
Experiment: LRRK2 G2019S Km ATP LanthaScreen assay
Assay type: biochemical
Conditions: G2019S LRRK2, 134 μM ATP (Km ATP), LRRKtide substrate
In short: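 Ten-point compound series (highest 9.99 μM in DMSO) preincubated 15 min with 1.25 nM GST-tagged truncated human LRRK2 G2019S, then 90 min reaction at ambient temperature with 134 μM ATP (Km) and fluorescein-labelled LRRKtide, pH 8.5. Phosphorylation read as 520/495 nm emission ratio via Tb-labelled antibody; IC50 from 4P logistic regression.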

GST-tagged truncated human mutant G2019S LRRK2, sequence (Q5S007 970-2527 G2019S): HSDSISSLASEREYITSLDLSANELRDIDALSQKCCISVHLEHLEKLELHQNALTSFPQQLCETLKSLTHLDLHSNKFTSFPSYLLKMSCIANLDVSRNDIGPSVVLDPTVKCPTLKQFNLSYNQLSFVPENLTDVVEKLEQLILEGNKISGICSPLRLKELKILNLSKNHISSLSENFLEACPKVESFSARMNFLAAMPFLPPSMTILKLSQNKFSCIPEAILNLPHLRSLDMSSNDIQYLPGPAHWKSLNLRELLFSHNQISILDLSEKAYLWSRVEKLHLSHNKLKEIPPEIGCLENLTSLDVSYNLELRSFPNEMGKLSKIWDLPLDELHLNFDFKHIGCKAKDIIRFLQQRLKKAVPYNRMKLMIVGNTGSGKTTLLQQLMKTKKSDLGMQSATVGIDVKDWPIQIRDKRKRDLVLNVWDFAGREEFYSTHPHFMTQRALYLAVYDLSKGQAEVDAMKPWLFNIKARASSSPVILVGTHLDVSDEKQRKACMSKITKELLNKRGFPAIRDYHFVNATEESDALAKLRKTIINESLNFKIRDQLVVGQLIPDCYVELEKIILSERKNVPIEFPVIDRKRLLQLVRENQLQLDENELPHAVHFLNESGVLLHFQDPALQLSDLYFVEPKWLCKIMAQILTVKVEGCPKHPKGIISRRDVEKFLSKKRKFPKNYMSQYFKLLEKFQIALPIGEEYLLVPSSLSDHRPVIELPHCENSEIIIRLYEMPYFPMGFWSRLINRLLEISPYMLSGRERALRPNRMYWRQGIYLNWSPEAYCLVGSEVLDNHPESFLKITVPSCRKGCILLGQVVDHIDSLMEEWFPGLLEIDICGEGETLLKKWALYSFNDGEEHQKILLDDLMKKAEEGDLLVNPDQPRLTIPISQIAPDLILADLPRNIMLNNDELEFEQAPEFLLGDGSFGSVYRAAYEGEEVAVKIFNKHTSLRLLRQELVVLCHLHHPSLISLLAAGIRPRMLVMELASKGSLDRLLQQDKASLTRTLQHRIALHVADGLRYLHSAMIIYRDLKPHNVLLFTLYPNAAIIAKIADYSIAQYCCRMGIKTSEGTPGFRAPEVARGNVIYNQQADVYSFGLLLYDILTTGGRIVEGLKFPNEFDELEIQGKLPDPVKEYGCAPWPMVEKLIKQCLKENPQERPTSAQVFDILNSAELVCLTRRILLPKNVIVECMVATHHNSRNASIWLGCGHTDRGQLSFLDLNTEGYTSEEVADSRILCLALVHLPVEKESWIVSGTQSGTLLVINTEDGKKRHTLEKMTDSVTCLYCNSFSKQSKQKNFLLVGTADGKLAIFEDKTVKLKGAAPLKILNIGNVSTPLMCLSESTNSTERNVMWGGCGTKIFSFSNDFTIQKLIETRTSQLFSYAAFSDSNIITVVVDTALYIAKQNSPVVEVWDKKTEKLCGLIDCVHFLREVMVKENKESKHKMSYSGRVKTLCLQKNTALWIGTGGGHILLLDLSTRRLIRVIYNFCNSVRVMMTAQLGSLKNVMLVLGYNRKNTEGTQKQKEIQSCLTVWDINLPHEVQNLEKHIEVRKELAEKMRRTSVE

Compound	LRRK2 pIC50
Cc1nn(C)c2c1OCC1(CC1)C(C)Nc1nc(ncc1C(F)(F)F)N2 (single isomer, unassigned) [Ex-2.14, (R)- or (S)-1′,3′,7′-trimethyl-10′-(trifluoromethyl)-1′,7′,8',14′-tetrahydro-5′H-spiro[cyclopropane-1,6′-[9,13](azeno)pyrazolo[4,3-b][1]oxa[4,6,10]triazacyclotridecine]]	6.73
Cc1nn(C)c2c1OCC1CC[C@H]1Nc1nc(ncc1C(F)(F)F)N2 (stereo partly drawn) [Ex-2.12, (10aR,12aS)- or (10aS,12aR)-1,3-dimethyl-8-(trifluoromethyl)-3,4,10,10a,11,12,12a,13-octahydro-5,9-(azeno)cyclobuta[k]pyrazolo[4,3-b][1]oxa[4,6,10]triazacyclotridecine]	7.61
Cc1nn(C2CCC2)c2c1OC[C@@H]1COC[C@H]1Nc1cc(ncc1F)N2 [Ex-13.8, (10aR,13aR)-3-cyclobutyl-8-fluoro-1-methyl-3,4,10a,11,13a,14-hexahydro-10H,13H-5,9-(metheno)furo[3,4-k]pyrazolo[4,3-b][1]oxa[4,6,10]triazacyclotridecine]	<5.00
N#CC1CC1c1nn(C2CCC2)c2c1OC[C@@H]1COC[C@H]1Nc1nc(ncc1C(F)(F)F)N2 (single isomer, unassigned) [Ex-2.51, (1R,2R)- or (1S,2S)-2-((10aS,13aS)-3-cyclobutyl-8-(trifluoromethyl)-3,4,10a,11,13a, 14-hexahydro-10H,13H-5,9-(azeno)furo[3,4-k]pyrazolo[4,3-b][1]oxa[4,6,10]triazacyclotridecin-1-yl)cyclopropane-1-carbonitrile]	9.05
Cn1nc(C(F)(F)F)c2c1OCC1COC[C@H]1Nc1nc(ncc1C(F)(F)F)N2 (stereo partly drawn) [Ex-1.2, (10aS,13aS)-1-Methyl-3,8-bis(trifluoromethyl)-1,4,10a,11,13a,14-hexahydro-10H,13H-5,9-(azeno)furo[3,4-k]pyrazolo[3,4-b][1]oxa[4,6,10]triazacyclotridecine]	>10.09
Cc1nn(C2CC2)c2c1OC[C@@H]1COC[C@H]1Nc1nc(ncc1C(F)(F)F)N2 [Ex-5.2, (10aS,13aS)-3-cyclopropyl-1-methyl-8-(trifluoromethyl)-3,4,10a,11,13a,14-hexahydro-10H,13H-5,9-(azeno)furo[3,4-k]pyrazolo[4,3-b][1]oxa[4,6,10]triazacyclotridecine]	9.46
CCOC(=O)[C@@H]1C[C@@H]1c1nn(C(C)C)c2c1OC[C@@H]1COC[C@H]1Nc1nc(ncc1C(F)(F)F)N2 [Ex-2.47, ethyl (1R,2S)- or ethyl (1S,2R)-2-((10aS,13aS)-3-isopropyl-8-(trifluoromethyl)-3,4,10a,11,13a,14-hexahydro-10H,13H-5,9-(azeno)furo[3,4-k]pyrazolo[4,3-b][1]oxa[4,6,10]triazacyclotridecin-1-yl)cyclopropane-1-carboxylate]	>10.09
CC(C)(C#N)n1nc(C2CC2)c2c1OC[C@@H]1CC[C@H]1Nc1nc(ncc1C(F)(F)F)N2 [Ex-1.17, 2-((10aR,12aR)-3-cyclopropyl-8-(trifluoromethyl)-10,10a,11,12,12a,13-hexahydro-5,9-(azeno)cyclobuta[k]pyrazolo[3,4-b][1]oxa[4,6,10]triazacyclotridecin-1(4H)-yl)-2-methylpropanenitrile]	>10.09
FC(F)(F)c1cnc2nc1NC1CCC1COc1c(C3CCOC3)nn(C3CCC3)c1N2 [Ex-2.63, (10aR,12aR)-3-cyclobutyl-1-((R)-(10aR,12aR)-3-cyclobutyl-1-((S)-(10aS,12aS)-3-cyclobutyl-1-((R)-(10aS,12aS)-3-cyclobutyl-1-((S)-tetrahydrofuran-3-yl)-8-(trifluoromethyl)-3,4,10,10a,11,12,12a,13-octahydro-5,9-(azeno)cyclobuta[k]pyrazolo[4,3-b][1]oxa[4,6,10]triazacyclotridecine]	>10.09
Cn1nc(C(F)(F)F)c2c1Nc1cc(c(Cl)cn1)N[C@@H]1COC[C@H]1CO2 [Ex-13.9, (10aS,13aS)-8-chloro-3-methyl-1-(trifluoromethyl)-3,4,10a,11,13a,14-hexahydro-10H,13H-5,9-(metheno)furo[3,4-k]pyrazolo[4,3-b][1]oxa[4,6,10]triazacyclotridecine]	8.49
(R)- or (S)-1-cyclopropyl-3,7-dimethyl-10- (trifluoromethyl)-1,5,6,7,8,14-hexahydro- 9,13-(azeno)pyrazolo[4,3- b][1]oxa[4,6,10]triazacyclotridecine [Ex-2.21]	9.00
Cc1nn(C2CCC2)c2c1OC[C@@H]1CC[C@H]1Nc1nc(ncc1C(F)(F)F)N2 [Ex-2.4, (10aR,12aR)- or (10aS,12aS)-3-Cyclobutyl-1-methyl-8-(trifluoromethyl)-3,4,10,10a,11,12,12a,13-octahydro-5,9-(azeno)cyclobuta[k]pyrazolo[4,3-b][1]oxa[4,6,10]triazacyclotridecine]	6.66
CC(C)c1nn(C(C)(C)CO)c2c1Nc1ncc(C(F)(F)F)c(n1)N[C@H](C)CCO2 [Ex-7.4, (R)-2-(3-isopropyl-11-methyl-8-(trifluoromethyl)-10,11,12,13-tetrahydro-5,9-(azeno)pyrazolo[3,4-b][1]oxa[4,6,10]triazacyclotridecin-1(4H)-yl)-2-methylpropan-1-ol]	>10.09
FC(F)(F)c1cnc2nc1NC1CCC1COc1c(C3CCOC3)nn(C3CCC3)c1N2 [Ex-2.64, (10aR,12aR)-3-cyclobutyl-1-((R)-(10aR,12aR)-3-cyclobutyl-1-((S)-(10aS,12aS)-3-cyclobutyl-1-((R)-(10aS,12aS)-3-cyclobutyl-1-((S)-tetrahydrofuran-3-yl)-8-(trifluoromethyl)-3,4,10,10a,11,12,12a,13-octahydro-5,9-(azeno)cyclobuta[k]pyrazolo[4,3-b][1]oxa|4,6,10]triazacyclotridecine]	>10.09
Cc1nn(C2CCC2)c2c1OC[C@@H]1COC[C@H]1Nc1cc(ncc1C(F)(F)F)N2 [Ex-13.1, (10aR,13aR)-3-Cyclobutyl-1-methyl-8-(trifluoromethyl)-3,4,10a,11,13a,14-hexahydro-10H,13H-5,9-(metheno)furo[3,4-k]pyrazolo[4,3-b][1]oxa[4,6,10]triazacyclotridecine, TFA]	>10.09
Cn1nc(C2CC2)c2c1OCC1CCC1Nc1nc(ncc1C(F)(F)F)N2 [Ex-1.9, (10aR,12aS)- or (10aS,12aR)-3-cyclopropyl-1-methyl-8-(trifluoromethyl)-1,4,10,10a,11,12,12a,13-octahydro-5,9-(azeno)cyclobuta[k]pyrazolo-[3,4-b][1]oxa[4,6,10]triazacyclo-tridecine]	>10.09
COC(=O)C(C)(C)n1nc(C)c2c1OCC[C@@H](C)Nc1nc(ncc1C(F)(F)F)N2 [Ex-1.5, methyl (R)-2-(3,11-dimethyl-8-(trifluoromethyl)-10,11,12,13-tetrahydro-5,9-(azeno)pyrazolo[3,4-b][1]oxa[4,6,10]triazacyclotridecin-1(4H)-yl)-2-methylpropanoate]	8.73
Cc1nn(C)c2c1OC[C@@H]1CN(C[C@H]1C)c1nc(ncc1C(F)(F)F)N2 [Ex-19.1]	>10.09
Cc1ccc2c(n1)OC[C@@H]1COC[C@H]1Nc1nc(ncc1C(F)(F)F)N2 [Ex-15.7, (11aS,14aS)-2-methyl-9-(trifluoromethyl)-11a,12,14a,15-tetrahydro-5H,11H,14H6,10-(azeno)furo[3,4-k]pyrido[2,3-b][1]oxa[4,6,10]triazacyclotridecine]	10.01
